Values of other authors in patent US8293800B2, “Quinone derivative 2,3-dimethoxy-5-methyl-6-(10-hydroxydecyl)-1,4-benzoquinone for the treatment of primary progressive multiple sclerosis” (Santhera Pharmaceuticals (Schweiz) AG, priority 2009, dated 2012).

Key:
[1] = chronic-progressive form of MS; 90 mg/day in combination with methylprednisolone over 240 days
[2] = PP-MS cohort; did not reach statistical significance
[3] = PP-MS, placebo-controlled Phase II
[4] = PP-MS patients

## COC1=C(OC)C(=O)C(CCCCCCCCCCO)=C(C)C1=O [Idebenone, 2,3-dimethoxy-5-methyl-6-(10-hydroxydecyl)-1,4-benzoquinone]
[1]
  clinical or neurophysiological efficacy: could not be shown to have any clinical or neurophysiological efficacy

## Nc1nc2ccc(OC(F)(F)F)cc2s1 [riluzole]
[2]
  inhibiting the development of cervical cord atrophy: mild effect

## Rituximab: Rituximab, tested in a placebo-controlled Phase II trial in PP-MS
[3]
  effect on the accumulation of disability: failed to demonstrate any effect

## interferon-beta
[4]
  could slow down the accumulation of disability in PP-MS: Neither
